From PubChem BioAssay AID179 (DTP/NCI, 2004) come the findings set out here.

Structures are written as SMILES. Active and inactive are the calls of the source.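 Rule for the calls: active = compounds giving half or more protection of infected cells from virus-caused growth loss, again on retest; inactive = the rest.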 Where only a bound is given, the exact number is not on record here.

The assay has as its system CEM cells HIV-1 protection, formazan growth assay. Briefly: NCI AIDS Antiviral Assay. The following applies: for IC50: measured here: growth of uninfected CEM cells. The essentials:
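Protection of CEM cells against HIV-1 measured as cell growth via soluble formazan read-out, with five concentrations tested on both infected and uninfected cells; failure to protect may reflect toxicity.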

Broadly, the EC50 is the concentration at which the effect is half-maximal. Usually IC50 stands for the midpoint of a concentration-inhibition curve. Read a high IC50 as weaker potency. As for `c1ccc2[nH]c(CNc3ccc(C4C[Se]N=N4)cc3)nc2c1` (configuration not stated), the EC50 was more than 20.4 µM and the half-maximal inhibitory concentration (IC50) was more than 20.4 µM.
For `O=C(CCCCCCCCC(=O)N1C(=O)CC(=O)N(c2cccc(Cl)c2)C1=S)N1C(=O)CC(=O)N(c2cccc(Cl)c2)C1=S`, the EC50 is more than 200 µM and the concentration for half-maximal inhibition (IC50) was 85.1 µM.
As for `O=C1OC2(O)c3ccccc3C(=O)N2N2CCCC12` (configuration not stated), the EC50 is more than 692 µM and the half-maximal inhibitory concentration (IC50) was more than 692 µM.
On to `Cc1ccc(Nc2nc(C)c(C(/C=C/c3ccc4c(c3)OCO4)=N/Nc3ccc([N+](=O)[O-])cc3[N+](=O)[O-])s2)c([N+](=O)[O-])c1`, for which the EC50 was more than 60.3 µM and the IC50 was 55 µM.
In the same order, the values of `Cc1nnc(NC2=NCCO2)s1` are more than 200 µM and more than 200 µM.
With `Cc1ccc(NC(=O)/C(=N/N(C)C)C(C2OC(=O)c3ccccc32)[N+](=O)[O-])cc1` (configuration not stated), the EC50 was more than 47.9 µM and the 50% inhibitory concentration (IC50) is more than 47.9 µM.
For the molecule `C/C(=N\N=C(/[Se])N1CCCCCC1)c1ccccn1`, the EC50 is more than 81.3 µM and the concentration for half-maximal inhibition (IC50) was 0.107 µM.
Consider `COc1ccc2[nH]c3c(c2c1)COc1ccccc1C3=O`, for which the EC50 was more than 200 µM and the IC50 is more than 200 µM.
`NC(=O)C(=CNC(=S)c1ccncc1)C(N)=O`: the EC50 was more than 200 µM and the IC50 was more than 200 µM.
On to `O=C(CCC(=O)C1CCC/C1=N/O)Nc1ccc(Cl)cc1` (configuration not stated), for which the EC50 is more than 302 µM and the IC50 was 1.12 µM.
`[N-]=[N+]=NC1OC(=O)C(Cl)=C1N=P(c1ccccc1)(c1ccccc1)c1ccccc1` (configuration not stated): the EC50 was more than 69.2 µM and the half-inhibitory concentration (IC50) was 7.94 µM.
Take `Cc1nc2c(N)n[nH]c(=O)n2n1`: the EC50 was more than 200 µM and the 50% inhibitory concentration (IC50) was more than 200 µM.
For `Cc1cc(=O)n(-c2ccccc2C)c(C)n1`, the EC50 is more than 1000 µM and the half-inhibitory concentration (IC50) is more than 1000 µM.
Turning to `Brc1ccc2c(C3CN[C@@H](c4c[nH]c5cc(Br)ccc45)CN3)c[nH]c2c1` (some centres not stated), the EC50 was more than 100 µM and the IC50 is 4.57 µM.
In the same order, the values of `CC(C)(CCNc1c2ccccc2nc2cccc([N+](=O)[O-])c12)[N+](C)(C)[O-]` are more than 0.2 µM and 0.12 µM.
On the same counts, the results for `CSc1ccc(/C=C/c2ccnc3ccccc23)cc1` are more than 13.5 µM and more than 13.5 µM.
On the same counts, the results for `COc1ccc(C(OCC2OC(N3CN4C(=NC3=O)N(C(=O)C(C)C)C(OC(=O)C(C)C)C4OC(=O)C(C)C)CC2OP(OC)N(C(C)C)C(C)C)(c2ccccc2)c2ccc(OC)cc2)cc1` (configuration not stated) are more than 100 µM and more than 100 µM.
As to `[N-]=[N+]=Nc1c([N+](=O)[O-])c(=O)n(-c2ccccc2)c2ccccc12`, the EC50 was more than 200 µM and the IC50 is 13.5 µM.
In the same order, the values of `COc1cccc(NC(=O)/C(CC(=O)CC(c2ccccc2)c2c(O)c3ccccc3oc2=O)=N\NC(C)(C)C)c1OC` (configuration not stated) are more than 85.1 µM and 70.8 µM.
Consider `CCC(=O)[O-].CCC(=O)[O-].N.N.N.N.[Co+3].[O-][Cl+3]([O-])([O-])[O-]`, for which the outcome was inactive.
Regarding `CC1(C)OC(=S)N(c2ccccc2)C12C=Cc1ccccc1O2` (configuration not stated), the EC50 is more than 200 µM and the IC50 turned out to be 35.5 µM.
For the molecule `OC(c1cccs1)c1cc2ccccc2s1` (configuration not stated), the EC50 was more than 200 µM and the IC50 worked out at 117 µM.
Turning to `O=C1Cc2c([nH]c3ccccc23)C2(CC3CCCCN13)OCCO2` (configuration not stated), the EC50 was more than 200 µM and the 50% inhibitory concentration (IC50) is 182 µM.
Take `O=C(/C=C/c1ccccc1)c1ccc(Sc2ccccc2)cc1`: the EC50 is more than 2 µM and the IC50 is 0.107 µM.
`CC1=C(C(=O)NC(C)(C)C)CC(C(=O)NC(C)(C)C)C(C)N1` (configuration not stated): the EC50 was more than 200 µM and the IC50 was more than 200 µM.
Consider `Cn1c(=O)c2c(ncn2CC(=O)NC23CC4CC(CC(C4)C2)C3)n(C)c1=O`, for which the result was inactive.
Turning to `COC(=O)/C(=N\N)C(C(=O)C(=O)Nc1cccc([N+](=O)[O-])c1)c1nc2ccc(C(=O)c3ccccc3)cc2[nH]c1=O` (configuration not stated), the EC50 was more than 64.6 µM and the IC50 was more than 64.6 µM.
Consider `COc1ccccc1NC(=S)/N=C/c1c(O)cc(C)oc1=O`, for which the EC50 is more than 200 µM and the half-maximal inhibitory concentration (IC50) was more than 200 µM.
As to `Nc1ncnc2c1ncn2C(Cl)=C(Cl)Cl`, the EC50 was more than 200 µM and the IC50 turned out to be 115 µM.
With `O=C(Cc1nc2ccccc2o1)C(=O)Nc1cccc(Cl)c1`, the outcome was inactive.
Turning to `CCOCC(C)(CO)CC(C)CO` (configuration not stated), the EC50 was more than 200 µM and the half-maximal inhibitory concentration (IC50) is more than 200 µM.
On to `N#Cc1cccc(C(Br)S(=O)(=O)c2ccccc2)c1` (configuration not stated), for which the EC50 was more than 77.6 µM and the IC50 came out at 72.4 µM.
Take `O=[N+]([O-])c1cccc(-c2ncc3c(n2)-c2ccccc2C3)c1`: the outcome was inactive.
Regarding `O=C(O)C1(Cc2ccccc2)Cc2cc3c(cc2C1)CCC3`, the EC50 was more than 200 µM and the IC50 turned out to be 93.3 µM.
In the same order, the values of `CN(C)C(=N)CSS(=O)(=O)O` are 120 µM and 182 µM.
In the same order, the values of `C=C(C)C1C/C=C(/C)CCCC2(CCC3=C(CC(C(=C)C)C/C=C(/C)CCC3)O2)C(=O)C1` (configuration not stated) are more than 30.9 µM and more than 30.9 µM.
On the same counts, the results for `COc1cccc(Oc2c(O)c3ccc(OC)cc3oc2=O)c1` are more than 200 µM and 141 µM.
As for `c1cc(-c2nc3sc(-c4ccncc4)nc3s2)ccn1`, the EC50 was more than 24.5 µM and the IC50 is more than 24.5 µM.
Take `CN(C)CC1CCCCCCCCCC(CN(C)C)C1=O` (configuration not stated): the EC50 is more than 5.89 µM and the IC50 was more than 5.89 µM.
As for `CC(C)(C)OC(=O)NCCC1SC2C=CC1C2` (configuration not stated), the EC50 was more than 200 µM and the IC50 was found to be 107 µM.
In the same order, the values of `CNC1(C#N)CCN(Cc2ccccc2)CC1` are more than 200 µM and more than 200 µM.
As to `O=C(O)CCCn1nnc2c(=O)[nH][nH]c(=O)c21`, the EC50 is more than 200 µM and the IC50 was more than 200 µM.
Consider `O=C1CCC(NC(=O)c2ccccc2)C(=O)N1` (configuration not stated), for which the EC50 was more than 200 µM and the IC50 was more than 200 µM.
Take `O=C1CCC23/C=C/C(=O)NCCCCNCCCNC(=O)/C=C/c4ccc(c2c4)OC3C1` (configuration not stated): the EC50 is more than 148 µM and the IC50 is more than 148 µM.
On to `O=C(NC(=O)C(Cc1ccccc1)c1ccccc1)C(Cc1ccccc1)c1ccccc1` (configuration not stated), for which the EC50 is more than 12 µM and the IC50 was more than 12 µM.
Consider `CCc1c2c(cc3c1CC1(C3)Cc3cc4c(c(C(=O)OC)c3C1)CCCC4)CCCC2` (configuration not stated), for which the EC50 is more than 200 µM and the IC50 was 166 µM.
On the same counts, the results for `CCOC(=O)CCNC(=O)Sc1ccccc1C(=O)NCCC(N)=O` are 1.2 µM and 110 µM.
As to `CCOC(=O)CCC(NC(=O)OCc1ccccc1)C(=O)NNC(=O)OC(C)(C)C` (configuration not stated), the EC50 was more than 200 µM and the IC50 is more than 200 µM.
Take `NS(=O)(=O)c1ccc(Nc2c3ccccc3nc3c(C(=O)NC(CO)(CO)CO)cccc23)cc1`: the EC50 is more than 200 µM and the IC50 was found to be 3.39 µM.
For `Cc1noc2nccnc12`, the EC50 was more than 186 µM and the half-maximal inhibitory concentration (IC50) is more than 186 µM.
Take `Cc1ccc(Oc2ccccc2N)cc1`: the outcome was inactive.
For the molecule `COc1ccc(C[C@H]2COC(=O)[C@@H]2Cc2ccc(O)c(O)c2)cc1OC`, the EC50 was more than 200 µM and the half-maximal inhibitory concentration (IC50) is 19.5 µM.
On the same counts, the results for `O=c1[nH]c2cc(C(F)(F)F)ccc2nc1CBr` are more than 200 µM and 6.61 µM.
Regarding `CCCCCCNC(=O)/C(=C\c1ccc(Cl)cc1Cl)NC(=O)c1ccccc1`, the EC50 was more than 200 µM and the IC50 was more than 200 µM.
`O=C(COc1ccc(Cl)cc1)N1CCN(C(=O)COc2ccc(Cl)cc2)c2ccccc21`: the EC50 was more than 11 µM and the IC50 is more than 11 µM.
As to `COc1ccc2c3c([nH]c(=O)c2c1C(=O)O)-c1ccccc1CC3`, the EC50 is more than 16.2 µM and the IC50 is more than 16.2 µM.
Consider `c1cc2nnnn2nc1N1CCCC1`, for which the EC50 was more than 200 µM and the concentration for half-maximal inhibition (IC50) was more than 200 µM.
In the case of `O=C(OCn1ncc2ccc([N+](=O)[O-])cc21)c1ccc(Cl)c(Cl)c1`, the EC50 was more than 200 µM and the half-inhibitory concentration (IC50) is 129 µM.
As for `COC(=O)C1=CC2C=CC(C1C(=O)OC)C1C(C(=O)OC)=C(C(=O)OC)C(C(=O)OC)=C(C(=O)OC)C21OC` (configuration not stated), the outcome was inactive.
With `C#CC(O)/C=C/CCCCCCCCC/C=C/CCCCCCCCC/C=C/C(O)C#C` (configuration not stated), the outcome was inactive.
Take `CNS(=O)(=O)c1c(NC=O)ncn1C`: the EC50 was more than 1150 µM and the half-maximal inhibitory concentration (IC50) is more than 1150 µM.
As for `CC1(n2[nH]c(=O)n(-c3ccccc3)c2=O)Cn2c(=O)n(-c3ccccc3)c(=O)n2-c2ccccc21` (configuration not stated), the EC50 was more than 200 µM and the 50% inhibitory concentration (IC50) was more than 200 µM.
Consider `O=c1c([Se]c2coc3ccccc3c2=O)coc2ccccc12`, for which the EC50 is more than 10.2 µM and the IC50 was more than 10.2 µM.
Turning to `Cn1cc(C(=O)C2CCCCC2)ccc1=O`, the EC50 is more than 1150 µM and the half-inhibitory concentration (IC50) worked out at 372 µM.
On the same counts, the results for `c1ccc2c(c1)Cc1cn3ncnc3nc1-2` are more than 200 µM and more than 200 µM.
On the same counts, the results for `COc1nc2c(c(=O)n1C)N=C(c1ccc(Cl)cc1)CC(c1ccccc1)N2` (configuration not stated) are more than 200 µM and 30.9 µM.
In the same order, the values of `Cc1nc(-c2nc(C)c(C(=O)/C=C/c3ccc([N+](=O)[O-])cc3)s2)sc1C(=O)/C=C/c1ccc([N+](=O)[O-])cc1` are more than 47.9 µM and more than 47.9 µM.
Take `CC1C[C@@H]2OC(=O)C(C)[C@H]2C[C@]2(C)C(O)CC(O)C12` (some centres not stated): the EC50 was more than 933 µM and the IC50 was 47.9 µM.
For `C(#CC[P+](c1ccccc1)(c1ccccc1)c1ccccc1)C[P+](c1ccccc1)(c1ccccc1)c1ccccc1`, the EC50 was more than 200 µM and the IC50 worked out at 36.3 µM.
Regarding `C=CCCC12CCCC(=O)C1Sc1ccc3ccccc3c12` (configuration not stated), the EC50 is more than 12.3 µM and the IC50 was more than 12.3 µM.
`CCCCSc1ccc2n(C)c(-c3ccc(/C=N\NC(=O)c4ccc(C(=O)N/N=C\c5ccc(-c6c[n+]7cc(SCCCC)ccc7n6C)cc5)cc4)cc3)c[n+]2c1`: the EC50 is 3.24 µM and the IC50 turned out to be 6.31 µM.
In the same order, the values of `O=S(=O)(O)C(O)CC(O)S(=O)(=O)O` (configuration not stated) are more than 200 µM and 102 µM.
